Among the data in ChEMBL document CHEMBL1131684, “Preparation of amino acid conjugates of betulinic acid with activity against human melanoma” (Bioorg Med Chem Lett, 1999) are EC50 and S values, retold here.

One data set has as its system KB. As to the kind of experiment: In vitro cytotoxicity (antitumor activity) against human epidermoid carcinoma of mouth cell line (KB). It counts as functional. As to conditions: read-out: ED50 (the source's name).
The next data set relates to SK-MEL-2. As to the kind of experiment: In vitro cytotoxicity (antitumor activity) against human melanoma (MEL-2) cell lines. It counts as functional. As to conditions: read-out: ED50 (the source's name).
The nature of data set [1]: Water solubility of the compound. It counts as ADME. As to conditions: buffer.

Values after ≈ are worked out from the molar mass of the structure shown.

As for `C=C(C)[C@@H]1CC[C@]2(C(=O)N[C@H](C(=O)OC)[C@@H](C)CC)CC[C@]3(C)[C@H](CC[C@@H]4[C@@]5(C)CC[C@H](O)C(C)(C)[C@@H]5CC[C@]43C)[C@@H]12`, the EC50 with KB and in the data set on SK-MEL-2 was greater than 20 mg/L in each case.
Take `C=C(C)[C@@H]1CC[C@]2(C(=O)N[C@H](C(=O)O)[C@@H](C)CC)CC[C@]3(C)[C@H](CC[C@@H]4[C@@]5(C)CC[C@H](O)C(C)(C)[C@@H]5CC[C@]43C)[C@@H]12`: the EC50 in the data set with KB and in the data set with SK-MEL-2 was greater than 20 mg/L throughout.
In data set [1], `C=C(C)[C@@H]1CC[C@]2(C(=O)N[C@@H](Cc3ccccc3)C(=O)OC)CC[C@]3(C)[C@H](CC[C@@H]4[C@@]5(C)CC[C@H](O)C(C)(C)[C@@H]5CC[C@]43C)[C@@H]12` yielded an S of 5 Dilution factor. Also, the EC50 was greater than 20 mg/L in the data set on KB and 9 mg/L (≈ 14.6 µM) with SK-MEL-2.
Take `C=C(C)[C@@H]1CC[C@]2(C(=O)N[C@@H](CC(=O)OC)C(=O)OC)CC[C@]3(C)[C@H](CC[C@@H]4[C@@]5(C)CC[C@H](O)C(C)(C)[C@@H]5CC[C@]43C)[C@@H]12`: the EC50 in the data set with KB and with SK-MEL-2 was greater than 20 mg/L in each case.
Regarding `C=C(C)[C@@H]1CC[C@]2(C(=O)N[C@@H](CCC(=O)O)C(=O)O)CC[C@]3(C)[C@H](CC[C@@H]4[C@@]5(C)CC[C@H](O)C(C)(C)[C@@H]5CC[C@]43C)[C@@H]12`, the EC50 in the data set on KB and in the data set with SK-MEL-2 was greater than 20 mg/L in each case.
In turn, `C=C(C)[C@@H]1CC[C@]2(C(=O)NCC(=O)OC)CC[C@]3(C)[C@H](CC[C@@H]4[C@@]5(C)CC[C@H](O)C(C)(C)[C@@H]5CC[C@]43C)[C@@H]12` returned a S in data set [1] of 50 Dilution factor. In addition, the EC50 in the data set with KB is greater than 20 mg/L; in the data set on SK-MEL-2, 10.2 mg/L (≈ 19.3 µM).
In the case of `C=C(C)[C@@H]1CC[C@]2(C(=O)N[C@@H](Cc3c[nH]c4ccccc34)C(=O)OC)CC[C@]3(C)[C@H](CC[C@@H]4[C@@]5(C)CC[C@H](O)C(C)(C)[C@@H]5CC[C@]43C)[C@@H]12`, the EC50 with KB and with SK-MEL-2 was greater than 20 mg/L each time.
Compound `C=C(C)[C@@H]1CC[C@]2(C(=O)N3CCC[C@H]3C(=O)O)CC[C@]3(C)[C@H](CC[C@@H]4[C@@]5(C)CC[C@H](O)C(C)(C)[C@@H]5CC[C@]43C)[C@@H]12` returned a S in data set [1] of 20 Dilution factor. Moreover, the EC50 in the data set on KB is greater than 20 mg/L; in the data set on SK-MEL-2 it was 13.1 mg/L (≈ 23.7 µM).
In data set [1], `C=C(C)[C@@H]1CC[C@]2(C(=O)N[C@H](C(=O)O)C(C)C)CC[C@]3(C)[C@H](CC[C@@H]4[C@@]5(C)CC[C@H](O)C(C)(C)[C@@H]5CC[C@]43C)[C@@H]12` registered an S of 20 Dilution factor. In addition, the EC50 in the data set on KB and with SK-MEL-2 was 9 mg/L (≈ 16.2 µM) throughout.
As for `C=C(C)[C@@H]1CC[C@]2(C(=O)N[C@@H](Cc3ccc(O)cc3)C(=O)OC)CC[C@]3(C)[C@H](CC[C@@H]4[C@@]5(C)CC[C@H](O)C(C)(C)[C@@H]5CC[C@]43C)[C@@H]12`, the EC50 in the data set on KB and in the data set on SK-MEL-2 was greater than 20 mg/L each time.
`C=C(C)[C@@H]1CC[C@]2(C(=O)N[C@@H](CCSC)C(=O)O)CC[C@]3(C)[C@H](CC[C@@H]4[C@@]5(C)CC[C@H](O)C(C)(C)[C@@H]5CC[C@]43C)[C@@H]12` displayed a S in data set [1] of 5 Dilution factor. The EC50 is greater than 20 mg/L with KB and 9 mg/L (≈ 15.3 µM) in the data set on SK-MEL-2.
On to `C=C(C)[C@@H]1CC[C@]2(C(=O)N[C@@H](CC(=O)O)C(=O)O)CC[C@]3(C)[C@H](CC[C@@H]4[C@@]5(C)CC[C@H](O)C(C)(C)[C@@H]5CC[C@]43C)[C@@H]12`, for which the EC50 in the data set on KB and with SK-MEL-2 was greater than 20 mg/L in each case.
Consider `C=C(C)[C@@H]1CC[C@]2(C(=O)N[C@@H](CC(C)C)C(=O)OC)CC[C@]3(C)[C@H](CC[C@@H]4[C@@]5(C)CC[C@H](O)C(C)(C)[C@@H]5CC[C@]43C)[C@@H]12`, for which the S in data set [1] is recorded as 5 Dilution factor. The EC50 was greater than 20 mg/L in the data set with KB and 6.2 mg/L (≈ 10.6 µM) in the data set with SK-MEL-2.
The compound `C=C(C)[C@@H]1CC[C@]2(C(=O)N[C@@H](CCSC)C(=O)OC)CC[C@]3(C)[C@H](CC[C@@H]4[C@@]5(C)CC[C@H](O)C(C)(C)[C@@H]5CC[C@]43C)[C@@H]12` displayed a S in data set [1] of 5 Dilution factor. Besides, the EC50 is greater than 20 mg/L in the data set with KB and 12.8 mg/L (≈ 21.3 µM) in the data set on SK-MEL-2.
On the same counts, the results for `C=C(C)[C@@H]1CC[C@]2(C(=O)N[C@@H](CCC(=O)OC)C(=O)OC)CC[C@]3(C)[C@H](CC[C@@H]4[C@@]5(C)CC[C@H](O)C(C)(C)[C@@H]5CC[C@]43C)[C@@H]12` are 20 Dilution factor, greater than 20 mg/L and 15.3 mg/L (≈ 24.9 µM).
In the case of `C=C(C)[C@@H]1CC[C@]2(C(=O)N[C@@H](Cc3ccccc3)C(=O)O)CC[C@]3(C)[C@H](CC[C@@H]4[C@@]5(C)CC[C@H](O)C(C)(C)[C@@H]5CC[C@]43C)[C@@H]12`, the EC50 in the data set on KB and with SK-MEL-2 was greater than 20 mg/L throughout.
With `C=C(C)[C@@H]1CC[C@]2(C(=O)N3CCC[C@H]3C(=O)OC)CC[C@]3(C)[C@H](CC[C@@H]4[C@@]5(C)CC[C@H](O)C(C)(C)[C@@H]5CC[C@]43C)[C@@H]12`, the EC50 in the data set on KB and in the data set with SK-MEL-2 was greater than 20 mg/L in each case.
In the case of `C=C(C)[C@@H]1CC[C@]2(C(=O)N[C@@H](C)C(=O)O)CC[C@]3(C)[C@H](CC[C@@H]4[C@@]5(C)CC[C@H](O)C(C)(C)[C@@H]5CC[C@]43C)[C@@H]12`, in data set [1], the S was 50 Dilution factor. Further, the EC50 turned out to be 4.6 mg/L (≈ 8.72 µM) in the data set on KB and 1.5 mg/L (≈ 2.84 µM) with SK-MEL-2.
Regarding `C=C(C)[C@@H]1CC[C@]2(C(=O)N[C@@H](Cc3ccc(O)cc3)C(=O)O)CC[C@]3(C)[C@H](CC[C@@H]4[C@@]5(C)CC[C@H](O)C(C)(C)[C@@H]5CC[C@]43C)[C@@H]12`, the EC50 in the data set with KB and with SK-MEL-2 was greater than 20 mg/L in each case.
In data set [1], `C=C(C)[C@@H]1CC[C@]2(C(=O)N[C@H](C(=O)OC)C(C)C)CC[C@]3(C)[C@H](CC[C@@H]4[C@@]5(C)CC[C@H](O)C(C)(C)[C@@H]5CC[C@]43C)[C@@H]12` yielded an S of 5 Dilution factor. In addition, the results for the EC50 in the data set on KB and with SK-MEL-2 were greater than 20 mg/L and 2.1 mg/L (≈ 3.69 µM), respectively.
On the same counts, the results for `C=C(C)[C@@H]1CC[C@]2(C(=O)N[C@@H](Cc3c[nH]c4ccccc34)C(=O)O)CC[C@]3(C)[C@H](CC[C@@H]4[C@@]5(C)CC[C@H](O)C(C)(C)[C@@H]5CC[C@]43C)[C@@H]12` are 10 Dilution factor, greater than 20 mg/L and 8.6 mg/L (≈ 13.4 µM).
Turning to `C=C(C)[C@@H]1CC[C@]2(C(=O)N[C@@H](CC(C)C)C(=O)O)CC[C@]3(C)[C@H](CC[C@@H]4[C@@]5(C)CC[C@H](O)C(C)(C)[C@@H]5CC[C@]43C)[C@@H]12`, the S in data set [1] was determined as 10 Dilution factor. Also, the EC50 is greater than 20 mg/L in the data set with KB and 9 mg/L (≈ 15.8 µM) in the data set with SK-MEL-2.
Take `C=C(C)[C@@H]1CC[C@]2(C(=O)N[C@@H](C)C(=O)OC)CC[C@]3(C)[C@H](CC[C@@H]4[C@@]5(C)CC[C@H](O)C(C)(C)[C@@H]5CC[C@]43C)[C@@H]12`: the S in data set [1] is given as 30 Dilution factor. For the same compound, the EC50 is greater than 20 mg/L with KB and 3.5 mg/L (≈ 6.46 µM) with SK-MEL-2.
On the same counts, the results for `C=C(C)[C@@H]1CC[C@]2(C(=O)NCC(=O)O)CC[C@]3(C)[C@H](CC[C@@H]4[C@@]5(C)CC[C@H](O)C(C)(C)[C@@H]5CC[C@]43C)[C@@H]12` are 100 Dilution factor, greater than 20 mg/L and 4.2 mg/L (≈ 8.17 µM).
In data set [1], `C=C(C)[C@@H]1CC[C@]2(C(=O)O)CC[C@]3(C)[C@H](CC[C@@H]4[C@@]5(C)CC[C@H](O)C(C)(C)[C@@H]5CC[C@]43C)[C@@H]12` [BETULINIC ACID] had an S of less than 5 Dilution factor. In addition, the EC50 in the data set with KB is greater than 20 mg/L; with SK-MEL-2, 4.2 mg/L (≈ 9.2 µM).
